In ChEMBL document CHEMBL3880435, “Compounds and compositions as protein kinase inhibitors” (2013):

Legend:
[1] = Hepatic extraction ratio in human liver microsomes at 1 uM in presence of NADPH by LC-MS/MS method; assay type: ADME; details: read-out: ERH
[2] = target: Serine/threonine-protein kinase B-raf (Homo sapiens, UniProt P15056, V600E); assay: Inhibition of B-Raf V600E mutant (unknown origin) using biotinylated Mek substrate incubated for 60 mins by amplified luminescence proximity homogeneous assay
[3] = Antitumor activity against human A375 cells xenografted in Nu/Nu mouse assessed as tumor volume level at 20 mg/kg, dosed BID for 14 days commencing on day 19 measured after 14 days post-first dose relative to initial tumor volume; assay type: functional, A-375
[4] = Antitumor activity against human A375 cells xenografted in Nu/Nu mouse assessed as tumor volume level at 3 mg/kg, dosed BID for 14 days commencing on day 19 measured after 14 days post-first dose relative to initial tumor volume; assay type: functional, A-375
[5] = Antitumor activity against human A375 cells xenografted in Nu/Nu mouse assessed as tumor volume level at 10 mg/kg, dosed BID for 14 days commencing on day 19 measured after 14 days post-first dose relative to initial tumor volume; assay type: functional, A-375
[6] = Antitumor activity against human A375 cells xenografted in Nu/Nu mouse assessed as tumor volume level at 1 mg/kg, dosed BID for 14 days commencing on day 19 measured after 14 days post-first dose relative to initial tumor volume; assay type: functional, A-375

Serine/threonine-protein kinase B-raf, sequence (P15056 2-766 V600E limits assumed): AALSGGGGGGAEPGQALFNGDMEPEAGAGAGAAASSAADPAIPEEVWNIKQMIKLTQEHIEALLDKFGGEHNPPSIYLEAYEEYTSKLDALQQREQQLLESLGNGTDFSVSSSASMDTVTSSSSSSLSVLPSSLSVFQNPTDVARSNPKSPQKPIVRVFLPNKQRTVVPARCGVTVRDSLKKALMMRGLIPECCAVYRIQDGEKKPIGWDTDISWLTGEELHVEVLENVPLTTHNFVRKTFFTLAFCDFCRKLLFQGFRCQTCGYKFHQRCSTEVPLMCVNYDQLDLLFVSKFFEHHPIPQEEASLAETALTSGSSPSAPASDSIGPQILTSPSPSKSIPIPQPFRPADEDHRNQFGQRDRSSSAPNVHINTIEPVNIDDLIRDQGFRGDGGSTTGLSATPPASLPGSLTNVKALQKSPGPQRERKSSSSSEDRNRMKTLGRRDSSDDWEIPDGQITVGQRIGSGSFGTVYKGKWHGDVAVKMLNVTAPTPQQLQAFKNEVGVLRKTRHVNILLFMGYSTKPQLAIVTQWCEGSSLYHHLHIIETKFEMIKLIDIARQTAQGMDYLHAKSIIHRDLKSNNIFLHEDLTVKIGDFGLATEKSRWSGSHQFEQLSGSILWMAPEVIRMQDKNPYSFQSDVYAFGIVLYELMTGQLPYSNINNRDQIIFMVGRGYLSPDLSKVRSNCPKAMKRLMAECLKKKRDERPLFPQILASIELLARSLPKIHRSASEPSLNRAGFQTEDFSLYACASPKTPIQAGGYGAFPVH

With `COC(=O)N[C@@H](C)CNc1nccc(-c2cn(C(C)C)nc2-c2cccc(NS(C)(=O)=O)c2F)n1` the hepatic extraction ratio at 1 µM [1] was < 0.31.

In the case of `COC(=O)N[C@@H](C)CNc1nccc(-c2cn(C(C)C)nc2-c2cc(C)cc(NS(C)(=O)=O)c2F)n1`, the IC50 [2] is reported as 0.95 nM.

In the case of `COC(=O)N[C@@H](C)CNc1nccc(-c2cn(C(C)C)nc2-c2cc(Cl)cc(NS(C)(=O)=O)c2F)n1` [ENCORAFENIB], the Activity [3] is reported as <80%, the Activity [4] is reported as 20% and the Activity [5] is reported as <80%. For the same compound, the Activity [6] was 20 - 50%.

In the case of `COC(=O)N[C@@H](C)CNc1nccc(-c2cn(C(C)C)nc2-c2cc(C)cc(NS(C)(=O)=O)c2Cl)n1`, the IC50 [2] is reported as 1 nM.
